Experimental data taken from PubChem BioAssay (NCI).
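Where inhibition never reached the appropriate level, the endpoint shown equals the highest concentration tested. Otherwise, values were interpolated linearly from a five-concentration, 48-hour dose response in 96-well plates. At the TGI there is no net growth.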

Key:
Assay in all cases: DTP human tumour cell line panel, 48 h
SW-620 colon = system: SW-620 colon
NCI-H226 lung = system: NCI-H226 lung
DU-145 prostate = system: DU-145 prostate
LOX IMVI melanoma = system: LOX IMVI melanoma
T-47D breast = system: T-47D breast
M14 melanoma = system: M14 melanoma
HOP-62 NSCLC = system: HOP-62 NSCLC
BT-549 breast = system: BT-549 breast
MCF7 breast = system: MCF7 breast
786-0 renal = system: 786-0 renal
NCI-H522 lung = system: NCI-H522 lung
NCI-H460 lung = system: NCI-H460 lung
IGROV1 ovarian = system: IGROV1 ovarian
EKVX NSCLC = system: EKVX NSCLC
KM12 colon = system: KM12 colon
COLO 205 colon = system: COLO 205 colon
NCI/ADR-RES ovarian = system: NCI/ADR-RES ovarian

Row | SMILES | TGI (SW-620 colon) | TGI (NCI-H226 lung) | TGI (DU-145 prostate) | TGI (LOX IMVI melanoma) | TGI (T-47D breast) | TGI (M14 melanoma) | TGI (HOP-62 NSCLC) | TGI (BT-549 breast) | TGI (MCF7 breast) | TGI (786-0 renal) | TGI (NCI-H522 lung) | TGI (NCI-H460 lung) | TGI (IGROV1 ovarian) | TGI (EKVX NSCLC) | TGI (KM12 colon) | TGI (COLO 205 colon) | TGI (NCI/ADR-RES ovarian)
1 | O=C(CNC(=O)OCc1ccccc1)NCCCCC(NC(=O)OCc1ccccc1)C(=O)NC(CCCCNC(=O)CNC(=O)OCc1ccccc1)C(=O)OCc1ccccc1 (configuration not stated) | > 62.5 µM | > 62.5 µM | > 62.5 µM | > 62.5 µM | > 62.5 µM | > 62.5 µM | > 62.5 µM | > 62.5 µM | > 62.5 µM | > 62.5 µM | > 62.5 µM | > 62.5 µM | > 62.5 µM | – | – | – | –
2 | CCOc1ncn(-c2ccc(NC(=S)NC34CC5CC(CC(C5)C3)C4)cc2)n1 | > 100 µM | – | > 100 µM | > 100 µM | > 100 µM | > 100 µM | > 100 µM | > 100 µM | > 100 µM | > 100 µM | > 100 µM | > 100 µM | > 100 µM | > 100 µM | > 100 µM | > 100 µM | –
3 | O=S(=O)(O)c1ccc2c(N=Nc3ccc(F)cc3)c(O)c(S(=O)(=O)O)cc2c1 | > 100 µM | – | > 100 µM | > 100 µM | > 100 µM | > 100 µM | > 100 µM | > 100 µM | – | > 100 µM | > 100 µM | – | > 100 µM | > 100 µM | > 100 µM | > 100 µM | > 100 µM
4 | c1ccc2cc(CNCCOCCOCCNCc3ccc4ccccc4c3)ccc2c1 | 4.62 µM | 9.9 µM | 3.37 µM | 3.06 µM | 4.95 µM | 3.89 µM | 4.01 µM | 3.3 µM | 3.41 µM | 2.97 µM | 3.44 µM | 3.24 µM | 3.22 µM | 6.13 µM | 3.16 µM | 3.01 µM | –
5 | Nc1ncnc2c1cnn2Cc1cn(COCC(O)CO)nn1 (configuration not stated) | > 100 µM | – | > 100 µM | > 100 µM | > 100 µM | > 100 µM | > 100 µM | > 100 µM | > 100 µM | > 100 µM | 30.8 µM | – | > 100 µM | > 100 µM | > 100 µM | > 100 µM | > 100 µM
6 | Cc1ccc(-c2c(C#N)c(N)nc3c2CCS(=O)(=O)c2ccccc2-3)cc1 | > 100 µM | > 100 µM | > 100 µM | > 100 µM | > 100 µM | – | – | > 100 µM | – | > 100 µM | > 100 µM | > 100 µM | > 100 µM | – | > 100 µM | > 100 µM | > 100 µM
7 | COC(=O)[C@@]12C(=O)C(C)C(=O)[C@]1(C)C(C)=C[C@H]1[C@]3(C=O)CC[C@H](OC(C)=O)C(C)(C)[C@H]3CC[C@@]12C (some centres not stated) | > 100 µM | > 100 µM | > 100 µM | > 100 µM | > 100 µM | > 100 µM | > 100 µM | > 100 µM | – | > 100 µM | > 100 µM | > 100 µM | – | > 100 µM | > 100 µM | > 100 µM | > 100 µM
8 | O=C(NCCc1ccccc1)c1c(O)c2ccccc2[nH]c1=O | > 100 µM | > 100 µM | > 100 µM | > 100 µM | – | – | > 100 µM | > 100 µM | > 100 µM | > 100 µM | > 100 µM | > 100 µM | > 100 µM | > 100 µM | > 100 µM | > 100 µM | > 100 µM
9 | COc1ccc(C(=O)N(C(=S)OCCOc2ccccc2)c2ccccc2)cc1 | > 100 µM | – | > 100 µM | > 100 µM | 55.4 µM | > 100 µM | > 100 µM | > 100 µM | > 100 µM | > 100 µM | > 100 µM | > 100 µM | > 100 µM | 96.6 µM | > 100 µM | > 100 µM | > 100 µM
10 | O=C(CCCN1CCC2(CC1)CC(=O)N(N1CCCCCC1)C2=O)c1ccc(F)cc1 | > 100 µM | – | > 100 µM | > 100 µM | > 100 µM | > 100 µM | > 100 µM | > 100 µM | > 100 µM | 38.1 µM | > 100 µM | – | > 100 µM | > 100 µM | – | > 100 µM | 37.3 µM
11 | O=c1oc2c(ccc3ccccc32)cc1C1=CSC2=NCCN12 | > 100 µM | – | 75.1 µM | > 100 µM | > 100 µM | > 100 µM | > 100 µM | 71.1 µM | 67.8 µM | > 100 µM | > 100 µM | > 100 µM | > 100 µM | > 100 µM | > 100 µM | > 100 µM | > 100 µM
